Source: ChEMBL document CHEMBL1201862, “PubChem BioAssay data set” (2004)
The source made the active and inactive calls. No stated cut-off is given here; in the data, actives have a measured IC50 and inactives only a lower limit.

Molecular target: Envelope glycoprotein gp160 (Human immunodeficiency virus 1, UniProt Q6QLK5)
Experiment: cell-free HIV fusion peptide-binding blockers – biochemical, uHTS, fluorescence dequenching, […] (AID 1986)

Sequence of Envelope glycoprotein gp160 (Q6QLK5 whole entry, the tested form may be a part): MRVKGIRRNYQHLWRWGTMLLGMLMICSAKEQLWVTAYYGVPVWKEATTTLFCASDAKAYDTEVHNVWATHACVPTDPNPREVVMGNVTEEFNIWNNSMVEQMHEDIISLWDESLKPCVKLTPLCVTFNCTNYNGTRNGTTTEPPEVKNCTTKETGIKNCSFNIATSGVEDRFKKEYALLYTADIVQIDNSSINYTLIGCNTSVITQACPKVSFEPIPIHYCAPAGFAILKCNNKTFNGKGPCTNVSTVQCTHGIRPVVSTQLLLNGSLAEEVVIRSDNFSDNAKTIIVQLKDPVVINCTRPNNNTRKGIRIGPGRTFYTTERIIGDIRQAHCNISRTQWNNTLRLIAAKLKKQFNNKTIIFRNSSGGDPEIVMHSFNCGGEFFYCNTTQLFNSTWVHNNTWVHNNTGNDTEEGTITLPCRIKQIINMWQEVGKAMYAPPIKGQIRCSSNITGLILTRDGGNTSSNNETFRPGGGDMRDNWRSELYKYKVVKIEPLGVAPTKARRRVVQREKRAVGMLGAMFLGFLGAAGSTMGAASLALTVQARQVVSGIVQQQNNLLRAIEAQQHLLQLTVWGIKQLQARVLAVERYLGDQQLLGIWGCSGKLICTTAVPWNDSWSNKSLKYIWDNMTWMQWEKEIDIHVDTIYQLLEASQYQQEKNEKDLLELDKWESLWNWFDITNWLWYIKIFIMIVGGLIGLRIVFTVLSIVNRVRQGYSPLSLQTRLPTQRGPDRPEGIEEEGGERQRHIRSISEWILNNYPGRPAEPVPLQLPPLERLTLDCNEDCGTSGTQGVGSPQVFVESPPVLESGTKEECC

Row | Structure (SMILES) | IC50
1 | O=C1NN(c2ccccc2)C(=O)/C1=C\c1cccc(OC(=O)c2cccs2)c1 | 33.9 µM (active)
2 | CC1(c2ccccc2)CC(C)(C)N2C(=O)/C(=C3\SC(=S)NC3=O)c3cccc1c32 (centres undefined) | 83.8 µM (active)
3 | O=C(COc1ccc(Cl)cc1)Nc1cc(NC(=O)COc2ccc(Cl)cc2)cc(C(=O)O)c1 | 26.4 µM (active)
4 | Cc1cc(Cl)ccc1OC(C)C(=O)Nc1ccc(C(=O)Nc2ccccc2C(=O)O)cc1 (centres undefined) | 13.1 µM (active)
